Data: patent US20120252834A1 (priority 2009, published 2012)
Like-named read-outs stand apart in the source and are kept apart here.

What was measured:
[1] = test system: SEB-induced toxic shock in C3H/HeJ mice; details: mouse, in vivo
[2] = test system: SEB-induced proliferation of T cells in PBMC; experiment: cells; assay type: cell-based, human
[3] = test system: lung MCP-1, IL-2 and IL-6 in SEB-exposed mice; details: mouse, in vivo
[4] = test system: human PBMC stimulated with SEB; experiment: cells; assay type: cell-based; details: for inhibition at 6.9 µg/mL: Homo sapiens, PBMC, 16 h
[5] = test system: PBMC; experiment: Trypan Blue exclusion test on PBMC; details: data not shown
[6] = test system: SEA-, TSST-1-, SPEA-, and SPEC-stimulated human peripheral blood mononuclear cells; assay type: cell-based; details: rapamycin 1 μg/mL
[7] = cited from earlier work
[8] = test system: peripheral blood cells and splenocytes from mice treated with SEB; experiment: Cellular apoptosis by JC-1 fluorescence (flow cytometry) in SEB-treated mice; assay type: in vivo, mouse; details: rapamycin 0.16 mg/kg i.n. at 17 h, cells taken 18 h after SEB
Protocol: Detection of cellular apoptosis by measuring fluorescence of mitochondrial J-aggregates. The loss of mitochondrial permeability, indicative of cellular apoptosis was detected by a fluorescent cationic dye, JC-1 (51). Briefly, peripheral blood or spleens were removed at 18 h from mice treated with SEB, SEB plus 0.16 mg/kg of intranasal rapamycin at 17 h after SEB exposure. Negative controls consisted of mice treated with DMSO at 17 h after saline. Red blood cells from peripheral blood and spleens were lyzed with FACS lyzing buffer (Becton Dickinson, Mountainview, Calif.) prior to staining with JC-1 dye according to manufacturer's instructions (Immunochemistry Technology, Bloomington, Minn.). Flow cytometer (Becton Dickinson) was used to measure cell fluorescence at 530 nm, which represents apoptotic cells.

[9] = test system: serum MCP-1, IL-6 and IL-2 in SEB-treated mice; details: mouse, in vivo
[10] = Determination of rapamycin in murine whole blood (HPLC, ion-trap MS); assay type: in vivo; details: mouse; for concentration at 1 h / concentration at 97 h: C3H/HeJ, whole blood; for concentration at 1 h: read-out: blood level of rapamycin
Protocol: Determination of rapamycin in murine whole blood. Blood was collected from rapamycin-treated mice (n=5) by retro-orbital bleeding into EDTA tubes 1 h after intranasal administration of rapamycin. Blood was centrifuged at 12000×g for 3 min to remove cells. Supernatants was removed and stored at −70° C. until analysis. Analysis of rapamycin was performed as previously described (23) using an Agilent Technologies series 1100 Capillary HPLC instrument and ion-trap mass spectrometer.

`C[C@@H]1C[C@H]2[C@@H]3CCC4=CC(=O)C=C[C@]4(C)[C@@]3(F)[C@@H](O)C[C@]2(C)[C@@]1(O)C(=O)CO` [dexamethasone] showed a lethality [1] of 90%.
In the case of `CO[C@H]1C[C@@H]2CC[C@@H](C)[C@@](O)(O2)C(=O)C(=O)N2CCCC[C@H]2C(=O)O[C@H]([C@H](C)C[C@@H]2CC[C@@H](O)[C@H](OC)C2)CC(=O)[C@H](C)/C=C(\C)[C@@H](O)[C@@H](OC)C(=O)[C@H](C)C[C@H](C)/C=C/C=C/C=C/1C` [rapamycin], the “reduction of T cell proliferation” value [2] is reported as 56%, the inhibition at 6.9 µg/mL ([2]; Homo sapiens, T-cell, 48 h, read-out: inhibition of SEB-induced T cell proliferation (maximal)) is reported as 94% and the “attenuation of lung IL-2” value [3] is reported as 80%. The “attenuation of lung IL-6” value [3] was 65%, the “attenuation of lung MCP-1” value [3] was 56% and the “suppression of IFNγ” value [4] was 36%. The “suppression of IL-2” value [4] was 34%, the inhibition at 6.9 µg/mL ([4]; read-out: inhibition of IL-1β production) was 97% and the inhibition at 6.9 µg/mL ([4]; read-out: inhibition of IL-2 production) was 100%. For the same compound, the inhibition at 6.9 µg/mL ([4]; read-out: inhibition of IL-6 production) was 67%, the inhibition at 6.9 µg/mL ([4]; read-out: inhibition of TNFα production) was 77% and the “cytotoxic effect (Trypan Blue exclusion)” value [5] was “not due to cytotoxic effect”. The “reduction of superantigen-induced T cell proliferation” value ([6]; SEA-stimulated) was 74%, the “reduction of superantigen-induced T cell proliferation” value ([6]; SPEA-stimulated) was 68% and the “reduction of superantigen-induced T cell proliferation” value ([6]; SPEC-stimulated) was 69%. The “reduction of superantigen-induced T cell proliferation” value ([6]; TSST-1-stimulated) was 42%, the “blood concentrations of rapamycin” value ([7]; healthy subjects, 1 h after 15 mg of rapamycin) was 78.2 ± 18 ng/mL and the “blood levels of rapamycin” value ([7]; renal transplantation, 5 mg/day, at 1.8 h) was 37.4 ± 21 ng/mL. For the same compound, the “decrease in number of apoptotic cells” value ([8]; mouse peripheral blood) was 66%, the “decrease in number of apoptotic cells” value ([8]; mouse spleen) was 74% and the “reduction of peak serum IL-6” value [9] was 80%. The “reduction of peak serum MCP-1” value [9] was 90%, the concentration at 1 h ([10]; other: intranasal followed by intraperitoneal, 1 h after multiple dosing (2 i.n. doses plus 1 i.p. dose)) was 692 ± 406 ng/mL and the concentration at 97 h ([10]; other: intranasal followed by intraperitoneal, at 97 h, lower doses (0.03 mg/kg i.n. at 2 and 5 h, 0.08 mg/kg i.p. at 24, 48, 72 and 96 h)) was 38 ± 15 ng/mL. For the same compound, the concentration at 97 h ([10]; other: intranasal followed by intraperitoneal, at 97 h after multiple dosing (i.n. 0.7 mg/kg at 2 and 5 h, i.p. 1.6 mg/kg at 30, 48, 72 and 96 h)) was 622 ± 282 ng/mL, the concentration at 1 h ([10]; other: intranasal, 0.7 mg/kg, 1 h after an i.n. dose of 0.7 mg/kg) was 492 ± 204 ng/mL and the “blood level of rapamycin” value ([10]; 1 h after an i.n. dose of 0.7 mg/kg, 0.7 mg/kg) was 658 ± 408 ng/mL. The “effective in protecting mice from SEB-mediated shock” value [1] was 100%, the protected [1] was 100% and the protection [1] was 20%. For the same compound, the weight gain [1] was 8-17%.
